Measured values as given in patent publication US10350177B2, “Antibacterial S-heterosubstituted disulfides” (priority 2007, dated 2019).
Converted amounts (≈) assume the structure as drawn.

Columns and labels:
Type in all cases: cell-based
[1] = system: Staphylococcus aureus (ATCC-849); assay: MIC by agar dilution against Staphylococcus aureus; conditions: for MIC: ATCC849
[2] = system: Live Vaccine Strain of Francisella tularensis; assay: microbe, parasite or virus in culture
[3] = system: Methicillin Resistant Staphylococcus aureus (ATCC-919); assay: MIC by agar dilution against methicillin-resistant Staphylococcus aureus; conditions: for MIC: ATCC 919 / MRSA

Q: c1ccc(NSSNc2ccccc2)cc1 [X] was tested. Which MIC [1] did it give?
A: The MIC was 4 µg/mL (≈ 16.1 µM).

Q: What about the MIC [2] of the same compound?
A: The MIC was 0.5 µg/mL (≈ 2.01 µM).

Q: And the MIC [3]?
A: The MIC was 4 µg/mL (≈ 16.1 µM).

Q: Which MIC [1] does the source give for CCC(C)OSSOC(C)CC (stereo not drawn) [IV] here?
A: The MIC was 16 µg/mL (≈ 76.1 µM).

Q: What about the MIC [2] of the same compound?
A: Its MIC is 16 µg/mL (≈ 76.1 µM).

Q: What about the MIC [3] of the same compound?
A: The MIC was 8 µg/mL (≈ 38 µM).

Q: CCCCNSSNCCCC [VIII] was tested. Which MIC [1] did it give?
A: Its MIC is 8 µg/mL (≈ 38.4 µM).

Q: And the MIC [2]?
A: The MIC was 4 µg/mL (≈ 19.2 µM).

Q: And the MIC [3]?
A: The MIC was 32 µg/mL (≈ 154 µM).

Q: Which MIC [1] does the source give for CC(C)NSSNC(C)C [VII] here?
A: Its MIC is 32 µg/mL (≈ 177 µM).

Q: What about the MIC [2] of the same compound?
A: The MIC was 2 µg/mL (≈ 11.1 µM).

Q: What about the MIC [3] of the same compound?
A: The MIC was 32 µg/mL (≈ 177 µM).

Q: For CC(C)CN(CC(C)C)SSN(CC(C)C)CC(C)C [XX], which MIC [1] is on record?
A: Its MIC is 16 µg/mL (≈ 49.9 µM).

Q: What about the MIC [2] of the same compound?
A: Its MIC is 1 µg/mL (≈ 3.12 µM).

Q: What about the MIC [3] of the same compound?
A: Its MIC is 16 µg/mL (≈ 49.9 µM).

Q: Which MIC [1] does the source give for CCN(CC)SSN(CC)CC [XVII] here?
A: The MIC was 2 µg/mL (≈ 9.6 µM).

Q: And the MIC [2]?
A: The MIC was 16 µg/mL (≈ 76.8 µM).

Q: And the MIC [3]?
A: Its MIC is 2 µg/mL (≈ 9.6 µM).

Q: What does the source list for CC(C)OSSOC(C)C [II]?
A: MIC [1]: 1 µg/mL (≈ 5.49 µM); MIC [2]: 4 µg/mL (≈ 21.9 µM); MIC [3]: 0.5 µg/mL (≈ 2.74 µM)

Q: Which results are given for CCCCSSSSCCCC [XIII]?
A: MIC [1]: 64 µg/mL (≈ 264 µM); MIC [2]: 4 µg/mL (≈ 16.5 µM); MIC [3]: 32 µg/mL (≈ 132 µM)

Q: Which results are given for CC(C)SSSSC(C)C [XII]?
A: MIC [1]: 32 µg/mL (≈ 149 µM); MIC [2]: 8 µg/mL (≈ 37.3 µM); MIC [3]: 32 µg/mL (≈ 149 µM)

Q: What does the source list for CCN(SSN(C(C)C)C(C)C)C(C)C [XVIII]?
A: MIC [1]: 2 µg/mL (≈ 7.98 µM); MIC [2]: 32 µg/mL (≈ 128 µM); MIC [3]: 1 µg/mL (≈ 3.99 µM)

Q: With CCCNSSNCCC [VI] as the compound, how does the MIC [1] read?
A: Its MIC is 8 µg/mL (≈ 44.4 µM).

Q: And the MIC [2]?
A: The MIC was 16 µg/mL (≈ 88.7 µM).

Q: And the MIC [3]?
A: The MIC was 4 µg/mL (≈ 22.2 µM).

Q: For CCCOSSOCCC [I], which MIC [1] is on record?
A: Its MIC is 32 µg/mL (≈ 176 µM).

Q: And the MIC [2]?
A: The MIC was 16 µg/mL (≈ 87.8 µM).

Q: And the MIC [3]?
A: Its MIC is 32 µg/mL (≈ 176 µM).

Q: For CCC(C)NSSNC(C)CC (stereo not drawn) [IX], which MIC [1] is on record?
A: The MIC was 16 µg/mL (≈ 76.8 µM).

Q: What about the MIC [2] of the same compound?
A: The MIC was 8 µg/mL (≈ 38.4 µM).

Q: What about the MIC [3] of the same compound?
A: Its MIC is 16 µg/mL (≈ 76.8 µM).

Q: c1ccc(SSSSc2ccccc2)cc1 [XV] was tested. Which MIC [1] did it give?
A: The MIC was 8 µg/mL (≈ 28.3 µM).

Q: And the MIC [2]?
A: Its MIC is 2 µg/mL (≈ 7.08 µM).

Q: And the MIC [3]?
A: The MIC was 8 µg/mL (≈ 28.3 µM).

Q: O=C(O)c1cn(C2CC2)c2cc(N3CCNCC3)c(F)cc2c1=O [Ciprofloxacin, reference compound] was tested. Which MIC [2] did it give?
A: The MIC was 16 µg/mL (≈ 48.3 µM).

Q: For CN(C)SSN(C)C [XVI], which MIC [1] is on record?
A: Its MIC is 0.25 µg/mL (≈ 1.64 µM).

Q: What about the MIC [2] of the same compound?
A: The MIC was 8 µg/mL (≈ 52.5 µM).

Q: What about the MIC [3] of the same compound?
A: The MIC was 0.5 µg/mL (≈ 3.28 µM).

Q: What does the source list for CCCSSSSCCC [XI]?
A: MIC [1]: 32 µg/mL (≈ 149 µM); MIC [2]: 1 µg/mL (≈ 4.66 µM); MIC [3]: 32 µg/mL (≈ 149 µM)

Q: Which MIC [1] does the source give for CCC(C)SSSSC(C)CC (stereo not drawn) [XIV] here?
A: The MIC was 32 µg/mL (≈ 132 µM).

Q: What about the MIC [2] of the same compound?
A: Its MIC is 16 µg/mL (≈ 66 µM).

Q: And the MIC [3]?
A: Its MIC is 64 µg/mL (≈ 264 µM).

Q: How did the MIC [1] turn out when C=CCN(CC=C)SSN(CC=C)CC=C [XIX] was run?
A: Its MIC is 1 µg/mL (≈ 3.9 µM).

Q: And the MIC [2]?
A: Its MIC is 16 µg/mL (≈ 62.4 µM).

Q: And the MIC [3]?
A: The MIC was 0.5 µg/mL (≈ 1.95 µM).

Q: How did the MIC [1] turn out when c1ccc(OSSOc2ccccc2)cc1 [V] was run?
A: The MIC was 2 µg/mL (≈ 7.99 µM).

Q: And the MIC [2]?
A: Its MIC is 1 µg/mL (≈ 3.99 µM).

Q: What about the MIC [3] of the same compound?
A: The MIC was 2 µg/mL (≈ 7.99 µM).

Q: Which MIC [1] does the source give for CCCCOSSOCCCC [III] here?
A: Its MIC is 0.25 µg/mL (≈ 1.19 µM).

Q: What about the MIC [2] of the same compound?
A: The MIC was 4 µg/mL (≈ 19 µM).

Q: And the MIC [3]?
A: Its MIC is 8 µg/mL (≈ 38 µM).

Q: What does the source list for CC1(C)S[C@@H]2[C@H](NC(=O)Cc3ccccc3)C(=O)N2[C@H]1C(=O)O [Penicillin G, reference compound]?
A: MIC S.A. [1]: 0.125 µg/mL (≈ 0.374 µM); MIC MRSA [3]: 16 µg/mL (≈ 47.8 µM)
